Data taken from the RepoRT retention time repository.

assay: HILIC, Waters ACQUITY UPLC BEH Amide, 100 × 2.1 mm, 1.7 µm; A: water + 0.125% formic acid + 10 mM ammonium formate; B: 5% water + 95% acetonitrile + 0.125% formic acid + 10 mM ammonium formate; gradient (min/%B) 0/100 2/100 7.7/70 9.5/40 10.25/30 12.75/100 17/100; conditions: stereoisomer not certain

Row | LC retention time [min] | SMILES
1 | 1.35 | COc1cc(C(=O)O)cc(OC)c1O [Syringic acid]
2 | 4.89 | CCCC(N)C(=O)O (configuration not stated) [Norvaline]
3 | 1.07 | O=C1C(c2c(O)[nH]c3ccccc23)=Nc2ccccc21 [Indarubicin]
4 | 8.15 | CN(CC(=O)O)C(=N)N [Creatine]
5 | 1.87 | CCCCc1oc2ccccc2c1C(=O)c1cc(I)c(OCCN(CC)CC)c(I)c1 [Amiodarone]
6 | 5.04 | CC(C)CN [Isobutylamine]
7 | 5.62 | CN(C)c1nc2c(ncn2C2OC(CO)C(O)C2O)c(=O)[nH]1 (configuration not stated) [N2,N2-Dimethylguanosine]
8 | 9.74 | CC(OP(=O)(O)O)C(N)C(=O)O (configuration not stated) [o-Phosphothreonine]
9 | 9.36 | CNCCCCC(N)C(=O)O (configuration not stated) [N-Methyllysine]
10 | 1.48 | CC(C)=CCNc1ncnc2c1ncn2C1OC(CO)C(O)C1O (configuration not stated) [N6-Isopentenyladenosine]
11 | 1.27 | COc1cccc(C(=O)O)c1N [2-Amino-3-methoxybenzoic acid]
12 | 1 | CC#CC1(O)CCC2C3CCC4=CC(=O)CCC4=C3C(c3ccc(N(C)C)cc3)CC21C (configuration not stated) [Mifepristone]
13 | 7.01 | CC(=O)NC1C(O)OC(CO)C(O)C1O (configuration not stated) [N-Acetylmannosamine]
14 | 9.88 | NC(CCCC(N)C(=O)O)C(=O)O (configuration not stated) [2,6-Diaminopimelic acid]
15 | 1.15 | O=C1CCC(=O)CC1 [1,4-Cyclohexanedione]
16 | 1.33 | CN(CC=CC#CC(C)(C)C)Cc1cccc2ccccc12 [Terbinafine]
17 | 6.22 | CC(O)C(C)C(=O)O (configuration not stated) [Methyl-3-hydroxybutyric acid]
18 | 7.98 | NC(C(=O)NC1C(=O)N2C(C(=O)O)=C(CSc3cn[nH]n3)CSC12)c1ccc(O)cc1 (configuration not stated) [Cefatrizine]
19 | 7.44 | NC(Cc1cccc(O)c1)C(=O)O (configuration not stated) [3-Hydroxyphenylalanine]
20 | 3.94 | Cc1ccsc1C(=CCCN1CCCC(C(=O)O)C1)c1sccc1C (configuration not stated) [Tiagabine]
21 | 8.86 | CC(C)CC(N)C(=O)NC(CCCN=C(N)N)C(=O)O (configuration not stated) [Leu-Arg]
22 | 7.07 | CC(NC(CCc1ccccc1)C(=O)O)C(=O)N1CCCC1C(=O)O (configuration not stated) [Enalaprilat]
23 | 5.4 | O=CCc1ccccc1 [Phenylacetaldehyde]
24 | 2.49 | CSCC1OC(n2cnc3c(N)ncnc32)C(O)C1O (configuration not stated) [5'-Methylthioadenosine]
25 | 0.92 | C=C(C)C1CC=C(C)CC1 (configuration not stated) [Limonene]
26 | 1.42 | O=CCC(O)C(O)CO (configuration not stated) [2-Deoxyribose]
27 | 7.67 | CN(Cc1cnc2nc(N)nc(N)c2n1)c1ccc(C(=O)NC(CCC(=O)O)C(=O)O)cc1 (configuration not stated) [Methotrexate]

Row | LC retention time [min] | SMILES
28 | 5.98 | CC(C)CC(NC(=O)C(O)C(N)Cc1ccccc1)C(=O)O (configuration not stated) [Bestatin]
29 | 8.02 | NCCC(=O)O [beta-Alanine]
30 | 5.42 | CC(=O)C1(O)Cc2c(O)c3c(c(O)c2C(OC2CC(N)C(O)C(C)O2)C1)C(=O)c1ccccc1C3=O (configuration not stated) [Idarubicin]
31 | 1.3 | COc1ccc(C(=O)O)cc1 [P-Anisic acid]
32 | 8.15 | O=C1OC(CO)C(O)C(O)C1O (configuration not stated) [Gluconolactone]
33 | 5.93 | OCCc1c[nH]c2ccc(O)cc12 [5-Hydroxytryptophol]
34 | 3.23 | CCCCCCCCCCCCCCCC(=O)OC(CC(=O)[O-])C[N+](C)(C)C (configuration not stated) [Palmitoylcarnitine cation]
35 | 8.44 | NC1C(O)OC(CO)C(O)C1O (configuration not stated) [Galactosamine]
36 | 4.66 | COc1cc2nc(N3CCN(C(=O)C4CCCO4)CC3)nc(N)c2cc1OC (configuration not stated) [Terazosin]
37 | 3.86 | Nc1c2c(nc3ccccc13)CCCC2 [Tacrine]
38 | 2.95 | c1ccc(C2CN3CCSC3=N2)cc1 (configuration not stated) [Levamisole]
39 | 1.46 | COC(=O)C1=C(C)NC(C)=C(C(=O)OC2CCCN(Cc3ccccc3)C2)C1c1cccc([N+](=O)[O-])c1 (configuration not stated) [Benidipine]
40 | 6.4 | Nc1nc2c(ncn2C2CC(O)C(CO)O2)c(=O)[nH]1 (configuration not stated) [2'-Deoxyguanosine]
41 | 1.78 | O=C1c2c(O)cc(O)cc2OC(c2ccc(O)c(O)c2)C1O (configuration not stated) [Taxifolin]
42 | 1.77 | O=c1ncc(F)c[nH]1 [5-Fluro-2-pyrimidone]
43 | 10.1 | NC1C(O)OC(COP(=O)(O)O)C(O)C1O (configuration not stated) [Glucosamine-6-phosphate]
44 | 4.8 | CN(C)CCc1c[nH]c2ccc(CC3COC(=O)N3)cc12 (configuration not stated) [Zolmitriptan]
45 | 1.41 | COc1cc(C=CC(=O)O)cc(OC)c1O [Sinapic acid]
46 | 1.11 | O=C(O)CCc1nc(-c2ccccc2)c(-c2ccccc2)o1 [Oxaprozin]
47 | 1.02 | CN1C(C(=O)Nc2ccccn2)=C(O)c2ccccc2S1(=O)=O [Piroxicam]
48 | 1.45 | O=C(O)Cc1cccc(O)c1 [3-Hydroxyphenylacetic acid]
49 | 4.19 | Cc1cn(C2OC(CO)C(O)C2O)c(=O)[nH]c1=O (configuration not stated) [5-Methyluridine]
50 | 9.48 | NC(Cc1cnc[nH]1)C(=O)O (configuration not stated) [Histidine]
51 | 1.47 | O=C1CCCC(=O)C1 [1,3 Cyclohexanedione]
52 | 1.32 | COc1cc2c(=O)c(-c3ccc(O)cc3)coc2cc1O [Glycitein]
53 | 1.41 | O=C(O)c1c[nH]c2ccccc12 [Indole-3-carboxylic acid]
54 | 8.67 | C[N+](C)(C)CCOP(=O)([O-])OCC(O)CO (configuration not stated) [Glycerophosphocholine]

Row | LC retention time [min] | SMILES
55 | 3 | CCC1OC(=O)C(C)C(OC2CC(C)(OC)C(O)C(C)O2)C(C)C(OC2OC(C)CC(N(C)C)C2O)C(C)(OC)CC(C)C(=O)C(C)C(O)C1(C)O (configuration not stated) [Clarithromycin]
56 | 8.14 | CC(C)CC(NC(=O)CN)C(=O)O (configuration not stated) [Glycyl-leucine]
57 | 1.47 | Cc1cc(O)cc(=O)o1 [4-Hydroxy-6-methyl-2-pyrone]
58 | 5.86 | O=C(O)CNC(=O)c1ccc(O)cc1 [4-Hydroxyhippuric acid]
59 | 1.41 | Oc1ccc(C=Cc2cc(O)cc(O)c2)cc1 [Resveratrol]
60 | 1.25 | Nc1nc(N)nc(-c2cc(Cl)ccc2Cl)n1 [Irsogladine]
61 | 8.49 | CN=C(NC)NCCCC(N)C(=O)O (configuration not stated) [SDMA]
62 | 8.99 | OCC(O)C(O)C(OC1OC(CO)C(O)C(O)C1O)C(O)CO (configuration not stated) [Lactitol]
63 | 9.33 | NC(CC(=O)O)C(=O)O (configuration not stated) [Aspartic acid]
64 | 1.01 | O=c1c(-c2ccccc2)c1-c1ccccc1 [Diphenylcyclopropenone]
65 | 0.98 | COc1cc(C=Cc2ccc(O)cc2)cc(OC)c1 [Pterostilbene]
66 | 9.29 | C[N+](C)(C)CCCCC(N)C(=O)[O-] (configuration not stated) [NEPSILON,NEPSILON,NEPSILON-TRIMETHYLLYSINE]
67 | 0.95 | COC(=O)C1=C(C)NC(C)=C(C(=O)OC(C)C)C1c1cccc2nonc12 (configuration not stated) [Isradipine]
68 | 1.78 | O=C(O)Cc1c[nH]c2ccc(O)cc12 [5-Hydroxy-3-indoleacetic acid]
69 | 5.3 | CC(CCCCC(=O)Nc1ccc(C(F)(F)F)cc1)NCCc1cnc[nH]1 (configuration not stated) [Histamine-trifluoromethyltoluide]
70 | 1 | COc1cc(CNC(=O)CCCCC=CC(C)C)ccc1O [Capsaicin]
71 | 2.15 | CN1CCN(CCCN2c3ccccc3Sc3ccc(C(F)(F)F)cc32)CC1 [Trifluoperazine]
72 | 1.24 | OCc1c[nH]c2ccccc12 [Indole-3-carbinol]
73 | 8.55 | CN(C)C(N)=NCCCC(N)C(=O)O (configuration not stated) [ADMA]
74 | 6.19 | O=c1[nH]cnc2c1ncn2C1OC(CO)C(O)C1O (configuration not stated) [Inosine]
75 | 1.73 | O=c1ccn(C2CCC(CO)O2)c(=O)[nH]1 (configuration not stated) [2,3-Dideoxyuridine]
76 | 3.65 | CCn1cc(C(=O)O)c(=O)c2cc(F)c(N3CCN(C)CC3)cc21 [Pefloxacin]
77 | 1.17 | Cc1ncc([N+](=O)[O-])n1CCO [Metronidazole]
78 | 2.49 | CC1COc2c(C3(N)CC3)c(F)cc3c(=O)c(C(=O)O)cn1c23 (configuration not stated) [Pazufloxacin]
79 | 2.25 | O=C(O)C(O)Cc1c[nH]c2ccccc12 (configuration not stated) [Indolelactic acid]
80 | 1.24 | CCOc1cc(N)c(Cl)cc1C(=O)NCC1CN(Cc2ccc(F)cc2)CCO1 (configuration not stated) [Mosapride]

Row | SMILES | LC retention time [min]
81 | CN1C(=O)COc2c(C(=O)NC3CN4CCC3CC4)cc(Cl)cc21 (configuration not stated) [Azasetron] | 4.66
82 | CCOP(=O)(OCC)Oc1ccc([N+](=O)[O-])cc1 [Paraoxon] | 1.02
83 | N#CC(O)c1ccc(O)cc1 (configuration not stated) [4-Hydroxymandelonitrile] | 2.63
84 | CN=C1CN(O)C(c2ccccc2)=c2cc(Cl)ccc2=N1 [Chlordiazepoxide] | 1.35
85 | CC1NCCOC1c1ccccc1 (configuration not stated) [Phenmetrazine] | 4.04
86 | COC(=O)c1ccccc1C(=O)OC [Dimethyl phthalate] | 1.04
87 | Oc1ccc2c3c1OC1C(O)CCC4(O)C(C2)N(CC2CCC2)CCC314 (configuration not stated) [Nalbuphine] | 5.25
88 | O=C1Nc2ccc(Cl)cc2C(c2ccccc2)=NC1O (configuration not stated) [Oxazepam] | 1.37
89 | NC(=O)CS(=O)C(c1ccccc1)c1ccccc1 (configuration not stated) [Modafinil] | 1.27
90 | CC(N)Cc1ccccc1 (configuration not stated) [Amphetamine] | 4.6
91 | Cc1ccc(-c2nc3ccc(C)cn3c2CC(=O)N(C)C)cc1 [Zolpidem] | 1.62
92 | CNc1ccccc1C(=O)O [N-Methylanthranilic acid] | 1.22
